Source: PMC9150124, “Design of a Potent, Selective, and Brain-Penetrant Inhibitor of Wnt-Deactivating Enzyme Notum by Optimization of a Crystallographic Fragment Hit” (Journal of Medicinal Chemistry, 2022)
Values after ≈ are worked out from the molar mass of the structure shown. Values joined by “and” are separate entries in the source; they are usually repeats but may differ in a detail not shown here. Identical values can stand only once.

Columns and labels:
[1] = Distribution coefficient LogD7.4 (shake flask); type: physicochemical; conditions: for logD at 1 h: 1-octanol/10 mM phosphate buffer, pH 7.4, octanol/buffer
Protocol: Molecular properties (MW, clogP, and TPSA) were calculated with ChemDraw Professional v16.0.1.4(77). Distribution coefficients (LogD7.4) were measured using the shake flask method.
(§1) Biosciences (Hyderabad, India) or WuXi AppTec (Shanghai, China).
A. Distribution coefficient (LogD7.4):
(§2) Table S1: Representative assay protocol
Octanol/buffer partition coefficient. 500 µL of organic phase (1-octanol) was added to each well of a 2 mL deep well plate, followed by 500 µL of buffer and 15 µL of test substance was added. The plate was vortexed for 1 hr on a plate shaker at 1200 Method rpm. After incubation, the samples were allowed to equilibrate for 20 min and then centrifuged at 4000 rpm for 30 min for complete phase separation and analysed by […]
Buffer 10 mM phosphate buffer
Test compound concentration 0.15 mM
End Point Fractional distribution of test compound between octanol and buffer […]
B. Aqueous solubility at pH 7.4:
Thermodynamic Solubility @ RT

[2] = Aqueous solubility in PBS (pH 7.4); type: physicochemical; conditions: for solubility: PBS pH 7.4, read-out: aq. solubility; for solubility thermodynamic: PBS, pH 7.4, n = 2, read-out: Thermodynamic Solubility @ RT, mean
Source text: as §1, §2

[3] = Stability in mouse liver microsomes; type: in vitro ADME; design: MLM Stability Cli mean: unit not given here; conditions: for half-life: mouse, liver microsomes, read-out: MLM Stability t1/2
[4] = Stability in human liver microsomes; type: in vitro ADME; design: HLM Stability Cli mean: unit not given here; conditions: for half-life: human, liver microsomes, read-out: HLM Stability t1/2
[5] = in vitro; conditions: dog
[6] = tested on: MDR1 (P-gp); test: in vitro; conditions: dog
[7] = tested on: P-gp (MDR1); test: in vitro; conditions: dog
[8] = molecular target: T1, human Notum (81–451 Cys330Ser) (Homo sapiens, UniProt Q6P988, C330S); test: Notum OPTS biochemical assay
T1 construct: human Notum (81–451 Cys330Ser) as the enzyme; made in house
T1 sequence (Q6P988 81-451 C330S): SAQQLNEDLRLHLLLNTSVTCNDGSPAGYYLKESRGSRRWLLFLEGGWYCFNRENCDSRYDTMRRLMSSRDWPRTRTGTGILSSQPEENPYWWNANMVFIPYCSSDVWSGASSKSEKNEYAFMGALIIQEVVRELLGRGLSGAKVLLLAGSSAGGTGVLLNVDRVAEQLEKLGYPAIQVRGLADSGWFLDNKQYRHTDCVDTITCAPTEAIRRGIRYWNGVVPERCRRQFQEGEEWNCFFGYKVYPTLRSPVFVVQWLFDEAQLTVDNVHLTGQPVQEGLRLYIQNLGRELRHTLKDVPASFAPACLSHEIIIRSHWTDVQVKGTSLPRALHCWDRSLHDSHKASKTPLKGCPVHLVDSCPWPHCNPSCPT
Source text: The optimization of 6 to deliver this profile was directed at three principle areas of these hit structures: (1) aryl ring 7 (Table 1); (2) the C4 substituent on triazole 8 (Table 2); and (3) further fine-tuning of the triazole 9 (Table 3). […] This assay was used to establish SAR and to identify preferred leads for additional studies.
Methods have been described in detail elsewhere.[23]−[26] Representative concentration–response curves are provided in the Supporting Information.

[9] = in vivo; design: species or system mouse; conditions: mouse, p.o. 10 mg/kg
Protocol: Mouse pharmacokinetic (PK) data was generated at Charles River Laboratories (Groningen, Netherlands) and GVK
Biosciences (Hyderabad, India). Rat PK was performed by WuXi AppTec (Shanghai, China).
Animal Testing Declaration: All in life phase studies were conducted in accordance with local Ethics Review
process. See, statements from each company.

[10] = Metabolic stability in mouse hepatocytes
[11] = Brain tissue binding, rapid equilibrium dialysis; type: in vitro ADME, rat
Protocol: Method: rapid equilibrium dialysis.
Test System Mouse Brain Homogenate 10% w/v in PBS
Incubation Time 5 h (mouse) or 4 h (rat)
No. of Replicates Two (mouse) or three (rat)
Buffer Phosphate buffer saline, pH 7.4
% Unbound in brain % Bound in brain %
Compound Species / Matrix homogenate SD homogenate Recovery

[12] = mouse PK, comparable study; cited from earlier work
[13] = MDCK-MDR1, MDCK-MDR1 AB Papp, apical to basal
[14] = MDCK-MDR1, MDCK-MDR1 BA Papp, basal to apical
[15] = MDCK-MDR1, MDR1-MDCKII A to B % Recovery
[16] = MDCK-MDR1, MDR1-MDCKII B to A % Recovery

logD at 1 h [1]	solubility [2]	solubility thermodynamic [2] [µg/mL]	MLM Cli [3] [μL/min/mg protein]	half-life ([3]; Table S4) [min]	HLM Cli [4] [μL/min/mg protein]	half-life ([4]; Table S4) [min]	Papp [5, 13] [×10⁻⁶ cm/s]	Papp [5, 14] [×10⁻⁶ cm/s]	recovery [6, 15] [%]	recovery [6, 16] [%]	Papp [7, 13] [×10⁻⁶ cm/s]	Papp [7, 14] [×10⁻⁶ cm/s]	SMILES	also measured
2.41	100 µg/mL (≈ 410 µM)	104 (≈ 426 µM)	88	15.8	12	115	57	59	80.7	87.2	56.6	58.3	OCc1cn(-c2ccc(Cl)c(Cl)c2)nn1 [6b, ((3,4-Dichlorophenyl)-1H-1,2,3-triazol-4-yl)methanol]	LogD7.4 ([1]; octanol/buffer, pH 7.4): 2.4
–	210 µg/mL and 680 µM	213 (≈ 683 µM)	6.7	105	1.7	553	46	28	94.1	97.5	45.9	27.8	OCc1cn(-c2ccc(Cl)c(C(F)(F)F)c2Cl)nn1 [7y, ((2,4-Dichloro-3-(trifluoromethyl)phenyl)-1H-1,2,3-triazol-4-yl)methanol]	fold more active than hit 6b [8]: 50 fold; fold more active than unsubstituted phenyl 7a [8]: 10,000 fold; IC50 ([8]; OPTS substrate, mean, read-out: Notum IC50): 9.5 ± 0.2 nM; MLM Stability Cli mean ([3]; Table S4): 6.65; HLM Stability Cli mean ([4]; Table S4): 1.65; Kp ([9]; male, C57/BL6, brain and plasma, po, AUC0–inf brain/plasma, total drug, read-out: brain-to-plasma ratio (Kp)): 1.2; AUC0–inf ([9]; plasma): 150 ng·h/mL; Cmax ([9]; plasma): 300 ng/mL; efflux ratio ([7]; MDCK-MDR1, MDCK-MDR1 efflux ratio (ER)): 0.61; mouse hepatocytes Cli [10]: 48 μL/min/10^6 cells; half-life ([10]; mouse, hepatocytes): 35.9 min
-0.27	–	–	–	–	–	–	–	–	–	–	–	–	COCCc1ccc(OCC(O)CNC(C)C)cc1 (stereo not drawn) [Metoprolol, reference compound]	–
–	–	–	–	–	–	–	–	–	–	–	–	–	CC(C)NCC(O)COc1cccc2ccccc12 (stereo not drawn) [Propranolol, reference compound]	fraction unbound at 4 h, 2 µM ([11]; brain homogenate, pH 7.4, SD rat, 4 h): 0.026; recovery at 4 h, 2 µM ([11]; pH 7.4, SD rat brain homogenate): 78.2%; Brain binding, % bound ([11]; rat brain homogenate): 97.4%
–	–	–	–	–	–	–	–	–	–	–	–	–	Cc1c(C(F)(F)F)oc2ncnc(SCC(=O)N3CC(=O)N(C)C3)c12 [compound 3]	brain-to-plasma ratio Kp [12]: 0.29
